# Values quoted from earlier work as cited in patent US20230248791A1, “METHODS FOR MANUFACTURING ANGELICA GIGAS NAKAI EXTRACT USING FERMENTATION BACTERIA” (Sooy-K Co., Ltd., priority 2022, published 2023).
# Legend:
# [1] = test system: ex vivo 3D human skin model
# [2] = test system: microphthalmia-associated transcription factors (MITFs); conditions: via PKA/CREB, p38/ERK MARK, PI3K/Akt/GSK-3β
# cyclooxygenase-2 (COX-2) = target: T1, cyclooxygenase-2 (COX-2) (Homo sapiens, UniProt P35354)
# T1 sequence (P35354 18-604): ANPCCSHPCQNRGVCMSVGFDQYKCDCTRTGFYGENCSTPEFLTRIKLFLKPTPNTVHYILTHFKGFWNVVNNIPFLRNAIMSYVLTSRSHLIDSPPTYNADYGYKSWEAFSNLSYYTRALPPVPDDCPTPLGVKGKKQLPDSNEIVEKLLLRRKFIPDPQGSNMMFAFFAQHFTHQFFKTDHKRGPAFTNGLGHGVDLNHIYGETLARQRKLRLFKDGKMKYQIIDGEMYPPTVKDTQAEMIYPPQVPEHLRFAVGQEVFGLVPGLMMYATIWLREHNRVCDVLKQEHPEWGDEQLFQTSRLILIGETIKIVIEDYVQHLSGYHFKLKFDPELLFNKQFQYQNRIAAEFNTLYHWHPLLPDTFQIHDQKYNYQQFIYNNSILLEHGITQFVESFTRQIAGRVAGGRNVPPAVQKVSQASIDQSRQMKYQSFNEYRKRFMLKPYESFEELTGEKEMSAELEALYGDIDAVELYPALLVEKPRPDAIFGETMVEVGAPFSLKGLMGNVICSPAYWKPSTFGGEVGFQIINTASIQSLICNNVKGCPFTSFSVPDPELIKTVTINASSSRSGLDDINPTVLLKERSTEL
smiles,measurement,setting,value
"CC(C)=CC(=O)OC1Cc2cc3ccc(=O)oc3cc2OC1(C)C (stereo not shown) [decursin, 3-methyl-2-butenoic acid 2,2-dimethyl-8-oxo-3,4-dihydro-2H,8H-pyrano[3,2-g]chromen-3-yl ester]",melanin synthesis,[1],prevents melanin synthesis
same,"effect on MITFs, major transcription factor in melanin synthesis",[2],inhibit
same,effect on COX-2 (anti-inflammatory mechanism),cyclooxygenase-2 (COX-2),inhibiting cyclooxygenase-2 (COX-2)
same,UVA/UVB-induced skin damage and skin aging,human dermal fibroblast,inhibits UVA/UVB-induced skin damage and skin aging
